Test results taken from US20240108753A1, “NUCLEIC ACID DELIVERY” (NUNTIUS THERAPEUTICS LIMITED, priority 2021, published 2024).
Where a SMILES comes first, the peptide text is derived from it. Where no end group is shown, it is not given here.

Key:
[1] = cited from earlier work
C2C12 cells = experiment: In vitro DNA (luciferase reporter) delivery; format: cell-based; conditions: N:P=8:1, DOTMA/DOPE w/w=1:1 to DNA
Excerpt: FIG. 25. In vitro DNA delivery to HeLa and C2C12 cells. HeLa cells were transfected with either DNA alone, G1,2,3-RL (N:P=5:1) and DOTMA/DOPE (at a w/w=1:1 to DNA) with DNA and G1,2,3-RL (N:P=5:1) and DOPG/DOPE (at a w/w=1:1 to DNA) with DNA (top panel). C2C12 cells (a muscle-derived cell line) were transfected with either DNA alone, polyethylenimine with DNA, G1,2-RL, 3-LR (N:P=8:1) and DOTMA/DOPE (at a w/w=1:1 to DNA) with DNA and NTX2 (N:P=8:1) and DOTMA/DOPE (at a w/w=1:1 to DNA) with DNA (bottom panel). The DNA used in both experiments encodes a luciferase reporter gene. NTX2 is a G1,2-RL, 3-LR dendrimer conjugated to a muscle targeting peptide ASSLINA ((LR)8(KRL)4(KRL)2KGSCGAASSLNIA(Acp)-NH2).
NTX2 is a G1,2-RL, 3-LR dendrimer conjugated to a muscle targeting peptide ASSLINA ((LR)8(KRL)4(KRL)2KGSCGAASSLNIA(Acp)-NH2).

mice tissue = experiment: In vivo luciferase DNA expression assays; conditions: intravenous; DOTMA/DOPE w/w=1:1 to DNA; NP 20:1; 24 h
Method: Mice were injected with the dendrimers, lipid and DNA formulations, and tissues were isolated and snap-frozen for luciferase expression analysis 24 h and 48 h post intravenous and intramuscular injection respectively.
The tissues were homogenised with 1× reporter lysis buffer supplemented with Protease Inhibitors. Depending on the tissues, 1.5 to 3 times of the lysis buffer was used for the tissue homogenisation. Following the homogenisation, the lysates were centrifuged and the supernatants were used for assaying luciferase expression and protein content. The luciferase expression level was measured with a luminometer using a luciferase assay kit (Promega), following the manufacturer's instructions. The protein content was measured using a Biorad protein assay kit at 595 nm absorbance, following the manufacturer's instructions.
Mice were injected with the dendrimers, lipid and DNA formulation prepared for detection of luciferase expression post injection. Tissues were isolated and snap-frozen for luciferase expression analysis 24 h and 48 h post intravenous and intramuscular injection respectively.

[2] = Hydrodynamic size, polydispersity index and zeta potential of dendrimer, lipid and mRNA complexes; format: physicochemical; conditions: DOTMA/DOPE w/w 10:1 to mRNA; for Hydrodynamic size: dendrimer, lipid and mRNA complexes
Method: The hydrodynamic size, polydispersity index and Zeta potential was determined for a set of the dendrimers disclosed in Tables 1 and 2.

[3] = Cell viability after transfection (crystal violet); format: cell-based, human; conditions: human, HeLa cells, following transfection with DNA formulations
Method: (§1) Cell viability. Cells were transfected as described in ‘Transfection Procedure’. Following 24 hours of transfection, the medium was removed and the cells were washed twice with PBS. Afterwards, the cells were dried for 1 hour at room temperature (to allow permeation of the nuclear stain). Crystal violet solution (50 μL of stock solution supplied by Sigma-Aldrich) was added to the cells. They were incubated for 15 min at room temperature. After washing with distilled water (5 times), the cells were dried for 30 min at room temperature. Then, MeOH (200 μL) was added and the suspension was incubated for 1 hour at room temperature. The relative amount of the crystal violet stain retained by viable cells was determined by the absorbance of the methanolic solution at 550 nm.

[4] = system: clathrin mediated endocytosis, caveolae-mediated endocytosis and micropinocytosis; experiment: Endocytic experiments: transfection in the presence of uptake inhibitors; format: cell-based; conditions: inhibitor added to G1,2,3-RL-D/D-DNA nanoparticle transfection
Method: The uptake mechanism of the composition of the invention was investigated. Chlorpromazine was used to inhibit clathrin mediated endocytosis. Genistein and Rottlerin were also used; these agents have been reported to inhibit caveolae-mediated endocytosis and micropinocytosis respectively.
Cells were preincubated with each inhibitor (chlorpromazine, genstein and rottlerin) for 30 min at 37 C.
Subsequently transfection was performed for a further 4 h at 37 C as described in the transfection section, in the presence of the inhibitor.

HeLa cells = experiment: Cell viability after transfection (crystal violet); format: cell-based, human; conditions: following transfection with DNA formulations
Method: as §1

For `ClC(Cl)(Cl)Cl` [carbon tetrachloride], the “AST and ALT threshold levels in disease model of liver damage” value ([1]; Bonnet et al 2008) is given as “greater than 7000 U/L”.
With “(LR)8(KRL)4(KRL)2KGSCGAASSLNIA(Acp)-NH2 [NTX2]” the “luciferase expression after DNA transfection” value (C2C12 cells) was “further increase transfection efficiency”.
In the case of (LR)8(KLR)4(KLR)2KGSC-NH2 [G1,2,3-LR], the “luciferase expression in tissues, DNA delivery” value (mice tissue) is reported as “the most effective delivery to skeletal muscle”, the “Polydispersity Index (PDI)” value ([2]; N:P 0.16:1) is reported as 0.168 and the “Zeta Potential” value ([2]; N:P 0.16:1) is reported as 43 mV. For the same molecule, the “Polydispersity Index (PDI)” value ([2]; N:P 8:1) was 0.272, the “Zeta Potential” value ([2]; N:P 8:1) was 60 mV and the Hydrodynamic size ([2]; N:P 0.16:1) was 121 nm. It also gave a Hydrodynamic size ([2]; N:P 8:1) of 83 nm.
`CC(C)C[C@H](NC(=O)[C@H](CCCCN)NC(=O)[C@H](CCCCNC(=O)[C@H](CC(C)C)NC(=O)[C@H](CCCCN)NC(=O)[C@H](CCCCNC(=O)[C@H](CC(C)C)NC(=O)[C@@H](N)CCCCN)NC(=O)[C@H](CC(C)C)NC(=O)[C@@H](N)CCCCN)NC(=O)[C@H](CC(C)C)NC(=O)[C@H](CCCCN)NC(=O)[C@H](CCCCNC(=O)[C@H](CC(C)C)NC(=O)[C@@H](N)CCCCN)NC(=O)[C@H](CC(C)C)NC(=O)[C@@H](N)CCCCN)C(=O)NCCCC[C@H](NC(=O)[C@H](CC(C)C)NC(=O)[C@H](CCCCN)NC(=O)[C@H](CCCCNC(=O)[C@H](CC(C)C)NC(=O)[C@H](CCCCN)NC(=O)[C@H](CCCCNC(=O)[C@H](CC(C)C)NC(=O)[C@@H](N)CCCCN)NC(=O)[C@H](CC(C)C)NC(=O)[C@@H](N)CCCCN)NC(=O)[C@H](CC(C)C)NC(=O)[C@H](CCCCN)NC(=O)[C@H](CCCCNC(=O)[C@H](CC(C)C)NC(=O)[C@@H](N)CCCCN)NC(=O)[C@H](CC(C)C)NC(=O)[C@@H](N)CCCCN)C(=O)NCC(=O)N[C@@H](CO)C(=O)N[C@@H](CS)C(N)=O` [G1,2,3-KL, (KL)8(KKL)4(KKL)2KGSC-NH2] (HELM PEPTIDE1{K.L.K.K.L.K.K.L.K.G.S.C.[am]}|PEPTIDE2{K.L}|PEPTIDE3{K.L.K.K.L.K.K.L}|PEPTIDE4{K.L}|PEPTIDE5{K.L.K.K.L}|PEPTIDE6{K.L}|PEPTIDE7{K.L.K.K.L}|PEPTIDE8{K.L}$PEPTIDE1,PEPTIDE2,3:R3-2:R2|PEPTIDE3,PEPTIDE4,3:R3-2:R2|PEPTIDE5,PEPTIDE6,3:R3-2:R2|PEPTIDE7,PEPTIDE8,3:R3-2:R2|PEPTIDE1,PEPTIDE7,6:R3-5:R2|PEPTIDE1,PEPTIDE3,9:R3-8:R2|PEPTIDE3,PEPTIDE5,6:R3-5:R2$$$V2.0) gave a viability at 24 h [3] of no less than 40%.
Molecule `CN(C)CCCN1c2ccccc2Sc2ccc(Cl)cc21` [Chlorpromazine] has an inhibition of transfection [4] of 80%.
`CC(C)C[C@H](NC(=O)[C@@H](N)CCCNC(=N)N)C(=O)NCCCC[C@H](NC(=O)[C@H](CC(C)C)NC(=O)[C@@H](N)CCCNC(=N)N)C(=O)NCC(=O)N[C@@H](CO)C(=O)N[C@@H](CS)C(N)=O` [G1-RL, (RL)2KGSC-NH2] (HELM PEPTIDE1{R.L.K.G.S.C.[am]}|PEPTIDE2{R.L}$PEPTIDE1,PEPTIDE2,3:R3-2:R2$$$V2.0) gave a cell death (HeLa cells) of 40%.
With `CC(=O)c1c(O)c(C)c(O)c(Cc2c(O)c3c(c(C(=O)/C=C/c4ccccc4)c2O)OC(C)(C)C=C3)c1O` [Rottlerin] the inhibition of transfection [4] was “around 50%”.
In the case of Lipopolysaccharides, the TNF-alpha level ([1]; in vivo) is listed as “up to 5000 μg/mL”.
With `O=c1c(-c2ccc(O)cc2)coc2cc(O)cc(O)c12` [Genistein] the inhibition of transfection [4] was “around 50%”.
Work on KLKLKGSC-NH2 [G1-KL, (KL)2KGSC-NH2] yielded a cell death (HeLa cells) of 40%.
